From ChEMBL document CHEMBL3112562, “Structure-activity relationships of N-substituted 4-(trifluoromethoxy)benzamidines with affinity for GluN2B-containing NMDA receptors” (Bioorg Med Chem Lett, 2014)
pKi: −log10 of the molar value.

Target: Glutamate receptor ionotropic, NMDA 2B (Rattus norvegicus, UniProt Q00960)
Assay: Displacement of [3H]ifenprodil from Wistar rat GluN2B receptor after 2 hrs by liquid scintillation spectrometry

Sequence of Glutamate receptor ionotropic, NMDA 2B (Q00960 whole entry): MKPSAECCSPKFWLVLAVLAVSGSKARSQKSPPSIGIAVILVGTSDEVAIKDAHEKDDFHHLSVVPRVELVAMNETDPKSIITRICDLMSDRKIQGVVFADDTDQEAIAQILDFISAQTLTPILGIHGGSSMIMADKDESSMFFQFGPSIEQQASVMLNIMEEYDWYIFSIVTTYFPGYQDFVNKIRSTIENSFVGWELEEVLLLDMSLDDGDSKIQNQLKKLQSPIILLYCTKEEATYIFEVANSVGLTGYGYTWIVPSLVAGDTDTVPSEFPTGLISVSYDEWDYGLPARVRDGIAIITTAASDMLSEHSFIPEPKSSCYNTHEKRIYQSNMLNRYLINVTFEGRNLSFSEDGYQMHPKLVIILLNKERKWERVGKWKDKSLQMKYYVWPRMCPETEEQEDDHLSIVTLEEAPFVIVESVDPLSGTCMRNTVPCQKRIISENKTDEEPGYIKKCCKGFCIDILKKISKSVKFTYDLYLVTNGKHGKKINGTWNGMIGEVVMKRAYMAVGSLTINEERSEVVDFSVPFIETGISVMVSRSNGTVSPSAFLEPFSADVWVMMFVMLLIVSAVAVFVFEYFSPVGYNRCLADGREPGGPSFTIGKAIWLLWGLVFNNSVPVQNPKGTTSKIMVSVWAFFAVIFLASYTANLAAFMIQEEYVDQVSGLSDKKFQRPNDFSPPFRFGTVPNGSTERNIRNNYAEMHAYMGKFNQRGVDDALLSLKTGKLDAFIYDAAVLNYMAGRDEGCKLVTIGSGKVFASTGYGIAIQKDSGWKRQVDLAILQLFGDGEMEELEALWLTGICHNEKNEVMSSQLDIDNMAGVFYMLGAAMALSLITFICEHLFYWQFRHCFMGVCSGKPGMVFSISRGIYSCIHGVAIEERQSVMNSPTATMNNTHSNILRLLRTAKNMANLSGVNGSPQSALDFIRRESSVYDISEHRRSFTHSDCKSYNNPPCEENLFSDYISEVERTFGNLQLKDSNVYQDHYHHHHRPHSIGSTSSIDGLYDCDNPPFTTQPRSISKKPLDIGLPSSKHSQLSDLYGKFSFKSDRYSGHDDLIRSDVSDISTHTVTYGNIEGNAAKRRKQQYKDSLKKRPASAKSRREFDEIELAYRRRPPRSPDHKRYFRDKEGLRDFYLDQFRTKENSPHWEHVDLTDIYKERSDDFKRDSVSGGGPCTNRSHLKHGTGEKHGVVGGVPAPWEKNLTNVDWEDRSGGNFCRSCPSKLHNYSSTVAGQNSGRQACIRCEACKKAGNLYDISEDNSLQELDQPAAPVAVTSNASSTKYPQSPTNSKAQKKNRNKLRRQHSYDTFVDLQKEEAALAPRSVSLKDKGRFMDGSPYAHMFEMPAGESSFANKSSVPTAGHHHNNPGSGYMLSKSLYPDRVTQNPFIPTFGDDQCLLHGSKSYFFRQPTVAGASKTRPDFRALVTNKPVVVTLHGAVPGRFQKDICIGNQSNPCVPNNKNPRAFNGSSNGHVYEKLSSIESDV

SMILES | pKi
NC(=NCc1ccccc1C(F)(F)F)c1ccc(OC(F)(F)F)cc1 | 8.09
COc1ccccc1C/N=C(\N)c1ccc(OC(F)(F)F)cc1 | 8.68
NC(=NCC12CC3CC(CC(C3)C1)C2)c1ccc(OC(F)(F)F)cc1 | 5.32
N=C(NCC12C3C4C5C3C1C5C42)c1ccc(OC(F)(F)F)cc1 (stereo not drawn) | 6.82
NC(=NCc1cc(F)cc(F)c1)c1ccc(OC(F)(F)F)cc1 | 8.45
N=C(NCc1ccc(F)c(F)c1)c1ccc(OC(F)(F)F)cc1 | 8.08
N=C(NCc1cccc(F)c1)c1ccc(OC(F)(F)F)cc1 | 8.54
N=C(NCc1ccc2c(c1)OCO2)c1ccc(OC(F)(F)F)cc1 | 7.58
COc1cccc(CNC(=N)c2ccc(OC(F)(F)F)cc2)c1OC | 6.52
COc1ccc(CNC(=N)c2ccc(OC(F)(F)F)cc2)c(OC)c1 | 7.79
COc1ccc(OC)c(CNC(=N)c2ccc(OC(F)(F)F)cc2)c1 | 8.37
COc1cc(CNC(=N)c2ccc(OC(F)(F)F)cc2)cc(OC)c1 | 7.64
COc1cc(CN=C(N)c2ccc(OC(F)(F)F)cc2)cc(OC)c1OC | 5.94
